Experimental data as given in the NIST ThermoML archive (doi:10.1016/j.jct.2019.03.007).

Experiment: molar heat capacity at constant pressure
Details: 101.33 kPa, Crystal 1, DSC

O=[N+]([O-])[O-].O=[N+]([O-])[O-].[Ca+2] [calcium nitrate]
Details	molar heat capacity at constant pressure [J/K/mol]
588.78 K	184.89
589 K	182.82
589.78 K	184.99
590 K	182.96
590.78 K	185.09
591 K	183.01
591.78 K	185.18
592 K	183.11
592.78 K	185.28
593 K	183.23
593.78 K	185.38
594 K	183.3
594.78 K	185.47
595 K	183.39
595.78 K	185.57
596 K	183.46
596.78 K	185.66
597 K	183.59
597.78 K	185.76
598 K	183.69
598.78 K	185.85
599 K	183.86
599.78 K	185.95
600 K	183.94
600.78 K	186.04
601 K	184.09
601.78 K	186.13
602 K	184.37
602.78 K	186.22
603 K	184.48
603.78 K	186.31
604 K	184.5
604.78 K	186.4
605 K	184.57
605.78 K	186.49
606 K	184.76
606.78 K	186.58
607 K	184.8
607.78 K	186.67
608 K	184.92
608.78 K	186.76
609 K	184.95
609.78 K	186.85
610 K	185
610.78 K	186.93
611 K	185.16
611.78 K	187.02
612 K	185.17
612.78 K	187.1
613 K	185.37
613.78 K	187.19
614 K	185.43
614.78 K	187.28
615 K	185.38
615.78 K	187.37
616 K	185.46
616.78 K	187.46
617 K	185.59
617.78 K	187.56
618 K	185.67
618.78 K	187.65
619 K	185.79
619.78 K	187.75
620 K	185.94
620.78 K	187.84
621 K	185.97
621.78 K	187.94
622 K	185.98
622.78 K	188.03
623 K	186.1
623.78 K	188.13
624 K	186.22
624.78 K	188.23
625 K	186.24
625.78 K	188.32
626 K	186.32
626.78 K	188.42
627 K	186.29
627.78 K	188.51
628 K	186.36
628.78 K	188.61
629 K	186.58
629.78 K	188.7
630 K	186.72
630.78 K	188.8
631 K	186.76
631.78 K	188.9
632 K	186.86
632.78 K	189
633 K	186.9
633.78 K	189.1
634 K	187.01
634.78 K	189.2
635 K	187.13
635.78 K	189.3
636 K	187.08
636.78 K	189.41
637 K	187.29
637.78 K	189.51
638 K	187.33
638.78 K	189.61
639 K	187.55
639.78 K	189.71
640 K	187.7
640.78 K	189.82
641 K	187.58
641.78 K	189.92
642 K	187.69
642.78 K	190.01
643 K	187.72
643.78 K	190.11
644 K	187.93
644.78 K	190.2
645 K	188.1
645.78 K	190.29
646 K	188.11
646.78 K	190.39
647 K	188.18
647.78 K	190.49
648 K	188.31
648.78 K	190.58
649 K	188.36
649.78 K	190.69
650 K	188.66
650.78 K	190.8
651 K	188.76
651.78 K	190.9
652 K	188.78
652.78 K	191.02
653 K	188.91
653.78 K	191.13
654 K	188.99
654.78 K	191.25
655 K	189.03
655.78 K	191.36
656 K	189.11
656.78 K	191.46
657 K	189.18
657.78 K	191.57
658 K	189.28
658.78 K	191.67
659 K	189.43
659.78 K	191.77
660 K	189.5
660.78 K	191.87
661 K	189.61
661.78 K	191.96
662 K	189.79
662.78 K	192.06
663 K	189.99
663.78 K	192.15
664 K	190.04
664.78 K	192.23
665 K	190.04
665.78 K	192.32
666 K	190.16
666.78 K	192.4
667 K	190.23
667.78 K	192.49
668 K	190.12
668.78 K	192.56
669 K	190.21
669.78 K	192.64
670 K	190.28
670.78 K	192.72
671 K	190.33
671.78 K	192.79
672 K	190.55
672.78 K	192.86
673 K	190.57
673.78 K	192.94
674 K	190.71
674.78 K	193.03
675 K	190.83
675.78 K	193.12
676 K	190.98
676.78 K	193.22
677 K	191.19
677.78 K	193.31
678 K	191.02
678.78 K	193.41
679 K	190.93
679.78 K	193.5
680 K	191.02
680.78 K	193.6
681 K	191.22
681.78 K	193.69
682 K	191.4
682.78 K	193.78
683 K	191.29
683.78 K	193.87
684 K	191.45
684.78 K	193.96
685 K	191.66
685.78 K	194.03
686 K	191.74
686.78 K	194.08
687 K	191.8
687.78 K	194.13
688 K	191.86
688.78 K	194.18
689 K	191.92
689.78 K	194.23
690 K	192.07
690.78 K	194.31
691 K	192.16
691.78 K	194.39
692 K	192.21
692.78 K	194.47
693 K	192.34
693.78 K	194.54
694 K	192.63
694.78 K	194.6
695 K	192.66
695.78 K	194.65
696 K	192.73
696.78 K	194.69
697 K	192.85
697.78 K	194.72
698 K	192.92
698.78 K	194.76
699 K	192.96
699.78 K	194.82
700 K	193.02
700.78 K	194.88
701 K	192.93
701.78 K	194.97
702 K	193.11
702.78 K	195.08
703 K	193.19
703.78 K	195.21
704 K	193.21
704.78 K	195.34
705 K	193.35
705.78 K	195.47
706 K	193.66
706.78 K	195.61
707 K	193.92
707.78 K	195.75
708 K	194.3
708.78 K	195.89
709 K	194.69
709.78 K	196.04
710 K	194.54
710.78 K	196.23
711 K	194.48
711.78 K	196.47
712 K	194.48
712.78 K	196.76
713 K	194.61
713.78 K	197.06
714.78 K	197.32
715.78 K	197.53
716.78 K	197.7
717.78 K	197.7
718.78 K	197.46
